Non-standard residues stand in square brackets, D forms with d. No end group written: not given here. Nle = CCCC[C@H](N)C(=O)O
Tested on: ApoB
Assay: Knockdown of endogenous serum ApoB in mice after co-injection of masked melittin delivery peptide and ApoB siRNA-cholesterol conjugate
Format: in vivo
Procedure: RNAi polynucleotide conjugates and masked melittin peptides were synthesized as described above. Six to eight week old mice (strain C57BL/6 or ICR, ˜18-20 g each) were obtained from Harlan Sprague Dawley (Indianapolis Ind.). Mice were housed at least 2 days prior to injection. Feeding was performed ad libitum with Harlan Teklad Rodent Diet (Harlan, Madison Wis.). Mice were injected with 0.2 mL solution of delivery peptide and 0.2 mL siRNA conjugates into the tail vein. For simultaneous injection of delivery peptide and siRNA, the siRNA-conjugate was added to modified peptide prior to injection and the entire amount was injected. The composition was soluble and nonaggregating in physiological conditions. Solutions were injected by infusion into the tail vein.
Mice were fasted for 4 h (16 h for rats) before serum collection by submandibular bleeding. For rats blood was collected from the jugular vein. Serum ApoB protein levels were determined by standard sandwich ELISA methods. Briefly, a polyclonal goat anti-mouse ApoB antibody and a rabbit anti-mouse ApoB antibody (Biodesign International) were used as capture and detection antibodies respectively. An HRP-conjugated goat anti-rabbit IgG antibody (Sigma) was applied afterwards to bind the ApoB/antibody complex. Absorbance of tetramethyl-benzidine (TMB, Sigma) colorimetric development was then measured by a Tecan Safire2 (Austria, Europe) microplate reader at 450 nm.
Melittin was reversibly modified with CDM-NAG as described above. The indicated amount of melittin was then co-injected with the 200 μg ApoB siRNA-cholesterol conjugate. Effect on ApoB levels were determined as described above.
Melittin was reversibly modified with CDM-NAG as described above. The indicated amount of melittin was then co-injected with 50 μg ApoB siRNA-cholesterol conjugate. Effect on ApoB levels were determined as described above.
Melittin was reversibly modified with CDM-NAG (5×) as described above. The indicated amount of melittin was then co-injected with the indicated amount of ApoB siRNA-cholesterol conjugate. Effect on ApoB levels were determined as described above.
Melittin was reversibly modified with the indicated amount of CDM-NAG as described above. 50 μg melittin was then co-injected with the 100 μg ApoB siRNA-cholesterol conjugate. Effect on ApoB levels were determined as described above.
Melittin peptides having the indicated sequence were reversibly modified with CDM-NAG (5×) as described above. The indicated amount of melittin was then co-injected with the indicated amount of ApoB siRNA-cholesterol conjugate. Effect on ApoB levels were determined as described above.
Melittin peptides containing the indicated PEG amino terminal modifications were synthesized as described above. The PEG amino terminal modified melittin peptides were then reversibly modified with 5×CDM-NAG as described above. The indicated amount of Melittin was then co-injected with the 100-200 μg ApoB siRNA-cholesterol conjugate. Effect on ApoB levels were determined as described above. Addition of PEG less than 5 kDa in size decreased toxicity of the melittin peptides.

[1] = CDM-NAG (5×), 400 μg peptide per mouse, 100 μg siRNA per mouse
[2] = CDM-NAG (5×), 100 μg peptide per mouse, 100 μg siRNA per mouse

“G1L, I2L, 15L, I17L, I20L (Seq ID 43): melittin peptide derivative (LLGALLKVLATGLPTLLSWLKNKRKQ; melittin-like peptide derive from Apis florea)” gave a percent knockdown [1] of 96%.

“G1L, G12L (Seq ID 22): melittin peptide derivative (LIGAILKVLATLLPTLISWIKNKRKQ; melittin-like peptide derive from Apis florea)” was tested, and the percent knockdown [1] was 93%.

In the case of “Apis Mellifera (Big Honey Bee; Seq ID 50): Apis mellifera melittin”, the percent knockdown [1] was 72%.

“Mel-NH2 (Seq ID 116): melittin peptide derivative (GIGAILKVLATGLPTLISWIKNKRKQ-NH2)” showed a percent knockdown (CDM-NAG (5×), 50 μg peptide per mouse, 100 μg siRNA per mouse) of 86%.

Substance “G1Y, K7A, K21A (Seq ID 35): melittin peptide derivative (YIGAILAVLATGLPTLISWIANKRKQ; melittin-like peptide derive from Apis florea)” has a percent knockdown [2] of 14%.

“Dimethyl G-Mel G1L (Seq ID 53): melittin peptide derivative (dimethyl-GLIGAILKVLATGLPTLISWIKNKRKQ)” showed a percent knockdown [2] of 91%.

For “G1Nle (Seq ID 8): melittin peptide derivative ([Nle]IGAILKVLATGLPTLISWIKNKRKQ)”, the percent knockdown [2] was 96%.

For “G12W (Seq ID 14): melittin peptide derivative (GIGAILKVLATWLPTLISWIKNKRKQ; melittin-like peptide derive from Apis florea)”, the percent knockdown (CDM-NAG (5×), 80 μg peptide per mouse, 100 μg siRNA per mouse) was 51%.

In the case of “G1L d(1-11)-1(12-26) (Seq ID 109): melittin peptide derivative ([dL][dI]G[dA][dI][dL][dK][dV][dL][dA][dT]GLPTLISWIKNKRKQ)”, the percent knockdown [2] was 70%.

“G1L, K7S (Seq ID 18): melittin peptide derivative (LIGAILSVLATGLPTLISWIKNKRKQ; melittin-like peptide derive from Apis florea)” was tested, and the percent knockdown [2] was 89%.

“CFK-G1L dMel-C (Seq ID 69): melittin peptide derivative (CFKLIGAILKVLATGLPTLISWIKNKRKQC; not fully specified (some residues); cysteine pairing not given here)” was tested, and the percent knockdown [2] was 79%.

“QQKKKKIWSILAPLGTTLVKLVAGIC-NH2 [Seq ID 93]” was tested, and the percent knockdown (CDM-NAG (5×), siRNA 20 mg/kg) was 70%.

In the case of “G1H (Seq ID 5): melittin peptide derivative (HIGAILKVLATGLPTLISWIKNKRKQ; melittin-like peptide derive from Apis florea)”, the percent knockdown [1] was 78%.

“dimethyl-dMel I2L, I5L, T11C, I17L, I20L dMel (Seq ID 46): melittin peptide derivative (dimethyl-GLGALLKVLACGLPTLLSWLKNKRKQ; not fully specified (some residues); also: D-amino acids, positions not given here)” gave a percent knockdown [2] of 87%.

Work on “Mel-Cys (Seq ID 62): melittin peptide derivative (GIGAILKVLATGLPTLISWIKNKRKQC; C-terminal Cys; melittin-like peptide derive from Apis florea)” yielded a percent knockdown [1] of 83%.

With “CKLK-dMel G1Nle (Seq ID 112): melittin peptide derivative (CKLK[Nle]IGAILKVLATGLPTLISWIKNKRKQ; also: D-amino acids (dMel), positions not given here)” the percent knockdown (CDM-NAG (5×), 200 μg peptide per mouse, 100 μg siRNA per mouse) was 84%.

In the case of “CKLK-Mel G1L (Seq ID 57): melittin peptide derivative; in Table 9 also with amino terminal NAG-(PEG)2/4/8 or PEG (5k) (CKLKLIGAILKVLATGLPTLISWIKNKRKQ; N-terminal CKLK extension; melittin-like peptide derive from Apis florea)”, the percent knockdown (5× CDM-NAG, amino terminal NAG-(PEG)2, 25 μg peptide, 100 μg siRNA) was 15%, the percent knockdown (5× CDM-NAG, amino terminal NAG-(PEG)2, 50 μg peptide, 100 μg siRNA) was 83% and the percent knockdown (5× CDM-NAG, amino terminal NAG-(PEG)4, 25 μg peptide, 100 μg siRNA) was 58%. For the same substance, the percent knockdown (5× CDM-NAG, amino terminal NAG-(PEG)4, 50 μg peptide, 100 μg siRNA) was 81%, the percent knockdown (5× CDM-NAG, amino terminal NAG-(PEG)4, 100 μg peptide, 100 μg siRNA) was 94% and the percent knockdown (5× CDM-NAG, amino terminal NAG-(PEG)8, 25 μg peptide, 100 μg siRNA) was 58%. The percent knockdown (5× CDM-NAG, amino terminal NAG-(PEG)8, 50 μg peptide, 100 μg siRNA) was 89%, the percent knockdown (5× CDM-NAG, amino terminal NAG-(PEG)8, 100 μg peptide, 100 μg siRNA) was 96% and the percent knockdown (5× CDM-NAG, amino terminal PEG (5k), 100 μg peptide, 100 μg siRNA) was 90%. It also gave a percent knockdown (5× CDM-NAG, no PEG modification, 150 μg peptide, 100 μg siRNA) of 91%, a percent knockdown (5× CDM-NAG, no PEG modification, 400 μg peptide, 100 μg siRNA) of 97% and a percent knockdown (CDM-NAG (5×), 150 μg peptide per mouse, 100 μg siRNA per mouse) of 91%.

In the case of “G1V (Seq ID 9): melittin peptide derivative (VIGAILKVLATGLPTLISWIKNKRKQ; melittin-like peptide derive from Apis florea)”, the percent knockdown [2] was 91%.

For “Acetyl-dMel-NH2 (Seq ID 107): melittin peptide derivative (Ac-G[dI]G[dA][dI][dL][dK][dV][dL][dA][dT]G[dL][dP][dT][dL][dI][dS][dW][dI][dK][dN][dK][dR][dK][dQ]-NH2; SMILES CC[C@@H](C)[C@@H](NC(=O)CNC(C)=O)C(=O)NCC(=O)N[C@H](C)C(=O)N[C@@H](C(=O)N[C@H](CC(C)C)C(=O)N[C@H](CCCCN)C(=O)N[C@@H](C(=O)N[C@H](CC(C)C)C(=O)N[C@H](C)C(=O)N[C@@H](C(=O)NCC(=O)N[C@H](CC(C)C)C(=O)N1CCC[C@@H]1C(=O)N[C@@H](C(=O)N[C@H](CC(C)C)C(=O)N[C@@H](C(=O)N[C@H](CO)C(=O)N[C@H](Cc1c[nH]c2ccccc12)C(=O)N[C@@H](C(=O)N[C@H](CCCCN)C(=O)N[C@H](CC(N)=O)C(=O)N[C@H](CCCCN)C(=O)N[C@H](CCCNC(=N)N)C(=O)N[C@H](CCCCN)C(=O)N[C@H](CCC(N)=O)C(N)=O)[C@H](C)CC)[C@H](C)CC)[C@H](C)O)[C@H](C)O)C(C)C)[C@H](C)CC)”, the percent knockdown [2] was 89%.

In the case of “G1L, I2V, I5V, I17V, I20V (Seq ID 45): melittin peptide derivative (LVGAVLKVLATGLPTLVSWVKNKRKQ; melittin-like peptide derive from Apis florea)”, the percent knockdown [2] was 24%.

For “G1C (Seq ID 3): melittin peptide derivative (CIGAILKVLATGLPTLISWIKNKRKQ; melittin-like peptide derive from Apis florea)”, the percent knockdown [2] was 37%.

Work on “G1Y Mel-PLGIAGQC (Seq ID 66): melittin peptide derivative (YIGAILKVLATGLPTLISWIKNKRKQPLGIAGQC; C-terminal PLGIAGQC extension; melittin-like peptide derive from Apis florea)” yielded a percent knockdown [2] of 79%.

“G1L, K7H (Seq ID 20): melittin peptide derivative (LIGAILHVLATGLPTLISWIKNKRKQ; melittin-like peptide derive from Apis florea)” gave a percent knockdown [2] of 97%.

In the case of “G1Y, K23A (Seq ID 29): melittin peptide derivative (YIGAILKVLATGLPTLISWIKNARKQ; melittin-like peptide derive from Apis florea)”, the percent knockdown [2] was 42%.

In the case of “G1L Mel-Cys (Seq ID 63): melittin peptide derivative (LIGAILKVLATGLPTLISWIKNKRKQC; C-terminal cysteine; melittin-like peptide derive from Apis florea)”, the percent knockdown [1] was 82%.

For “G1F dMel (Seq ID 4): melittin peptide derivative ([dF][dI]G[dA][dI][dL][dK][dV][dL][dA][dT]G[dL][dP][dT][dL][dI][dS][dW][dI][dK][dN][dK][dR][dK][dQ])”, the percent knockdown (CDM-NAG (5×), 100 μg peptide per mouse, 50 μg siRNA per mouse) was 94%.

Source: patent US9526796B2, “Peptide-based in vivo siRNA delivery system” (priority 2010, dated 2016)
